The values that follow are results of earlier work, collected in patent US6358940B1, “Modified 2-Alkoxyestradiol derivatives with prolonged pharmacological activity” (priority 1999, dated 2002).

In one data set the test system is tubulin polymerization. The note with it: antitubulin activity and cytotoxicity.
In data set [1] the test system is human non-small cell lung cancer line.
The subject of a further data set is neovascularization. The note with it: in vivo.

As to `CC=Cc1cc2c(cc1O)CCC1C2CCC2(C)C(O)CCC12` (stereo not drawn) [2-((E)-l-propenyl)-estradiol], the “potency relative to 2-methoxyestradiol” value with tubulin polymerization is “substantially more potent than 2-methoxyestradiol”.

For `CCOc1cc2c(cc1O)CC[C@@H]1[C@@H]2CC[C@]2(C)[C@@H](O)CC[C@@H]12` [2-Ethoxyestradiol], in the data set with tubulin polymerization, the “potency relative to 2-methoxyestradiol” value is given as “substantially more potent than 2-methoxyestradiol”.

For `COc1cc2c(cc1O)CC[C@@H]1[C@@H]2CC[C@]2(C)[C@@H](O)CC[C@@H]12` [2-methoxyestradiol], the apoptotic cell death entry in data set [1] (after drug treatment) is recorded as “Significant apoptotic cell death”. In data set [1] (human non-small cell lung cancer line, with accumulation of p21WAF1/CIP1), the “wild-type p53 levels” value is given as “increases wild-type p53 levels”. The “inhibitory effect on angiogenesis” value in the data set with angiogenesis is “strong inhibitory effect on angiogenesis”. For the same compound, in the data set on neovascularization (mice), the inhibition of neovascularization entry is listed as “potent inhibitor of neovascularization”. Also, the signs of toxicity entry in the data set on neovascularization (mouse) is recorded as “No signs of toxicity”. The cytotoxicity entry with cancer cell cultures is on record as “cytotoxic”.
